Laboratory results from patent US20250324973A1, “Pest Control Composition and Control Method” (priority 2021, published 2025).

Key:
Type in all cases: in vivo
[1] = system: small brown planthopper, susceptible line or reduced susceptible line; experiment: Test Example 20: spray on rice seedlings, mortality rate; conditions: small brown planthopper 3rd-instar larvae on rice; 0.05-200 ppm; six days
Procedure: Natural pyrethrin or MX is formulated according to the method described in the Formulation Example 1. Similarly, flupyradifuron and flupyrimin are formulated according to the method described in the Formulation Example 1, respectively. Each of the above formulations is diluted with water containing 0.05% by volume of a spreading agent (product name: Shindain (registered trademark)) so that the concentration of active ingredient may be 0.05 ppm, 0.2 ppm, 0.8 ppm, 3.1 ppm, 12.5 ppm, 50 ppm or 200 ppm. Admire water dispersible granule (Active ingredient: imidacloprid, manufactured by Bayer CropScience K.K.), TREBON emulsifiable concentrate (Active ingredient: etofenprox, manufactured by Mitsui Chemicals Agro, Inc.), PRINCE flowable (Active ingredient: fipronil, manufactured by BASF Japan Ltd.), KIRAPPU flowable (Active ingredient: ethiprole, manufactured by Bayer CropScience K.K.), and APPLAUD flowable (Active ingredient: buprofezin, manufactured by NIHON NOHYAKU CO., LTD), which are commercial products, are diluted with water containing 0.05% by volume of a spreading agent (product name: Shindain (registered trademark)), respectively so that the concentration of active ingredient may be 0.05 ppm, 0.2 ppm, 0.8 ppm, 3.1 ppm, 12.5 ppm, 50 ppm or 200 ppm. The resulting dilution is sprayed to seedlings (at the 2.5-leaf stage) of rice (Oryza sativa) planted in a container at a rate of 10 ml/seedling. After that, 20 3rd-instar larvae of small brown planthopper of a susceptible line (a line that have been bred successively in Health & Crop Sciences Research Laboratory of Sumitomo Chemical Co., Ltd.) or small brown planthopper of a reduced susceptible line (a line that have been bred successively without selection after collecting in Nagasaki prefecture in 2016) are released thereto. Six days later, the number of surviving insects is observed, and a mortality rate of insect is calculated by the formula 2). On the other hand, rice is cultivated in the same way as in the treated plot, except that the dilution containing natural pyrethrin or MX is not sprayed (this is referred to as an untreated plot).

[2] = system: diamondback moth, susceptible line or reduced susceptible line; experiment: Test Example 19: spray on cabbage seedlings, mortality rate; conditions: diamondback moth 3rd-instar larvae on cabbage; 0.05-200 ppm; five days
Procedure: Natural pyrethrin or MX is formulated according to the method described in the Formulation Example 1. Each of the above formulations is diluted with water containing 0.05% by volume of a spreading agent (product name: Shindain (registered trademark)) so that the concentration of active ingredient may be 0.05 ppm, 0.2 ppm, 0.8 ppm, 3.1 ppm, 12.5 ppm, 50 ppm or 200 ppm. Phoenix water dispersible granule (Active ingredient: flubendiamide, manufactured by NIHON NOHYAKU CO., LTD), PREVATHON flowable 5 (Active ingredient: chlorantraniliprole, manufactured by Nissan Chemical Corporation) and BENEVIA OD (Active ingredient: cyantraniliprole, manufactured by KUMIAI CHEMICAL INDUSTRY CO., LTD.), which are commercial products, are diluted with water containing 0.05% by volume of a spreading agent (product name: Shindain (registered trademark)), respectively so that the concentration of active ingredient may be 0.05 ppm, 0.2 ppm, 0.8 ppm, 3.1 ppm, 12.5 ppm, 50 ppm or 200 ppm. The resulting dilution is sprayed to seedlings (at the 3rd to 4th true leaf unfolding stage) of cabbage (Brassicae oleracea) planted in a container at a rate of 20 ml/seedling. After that, 10 3rd-instar larvae of diamondback moth of a susceptible line (a line that have been bred successively in Health & Crop Sciences Research Laboratory of Sumitomo Chemical Co., Ltd.) or diamondback moth of a reduced susceptible line (a line that have been bred successively without selection after collecting in Kumamoto prefecture in 2016) are released thereto. Five days later, the number of surviving insects is counted, and a mortality rate of insect is calculated by formula 3). On the other hand, cabbages are cultivated in the same way as in the treated plot, except that the dilution containing natural pyrethrin or MX is not sprayed (this is referred to as an untreated plot).

[3] = system: white-backed planthopper, susceptible line or reduced susceptible line; experiment: Test Example 21: spray on rice seedlings, mortality rate; conditions: white-backed planthopper 3rd-instar larvae on rice; 0.05-200 ppm; six days
Procedure: Natural pyrethrin or MX is formulated according to the method described in the Formulation Example 1. Each of the above formulations is diluted with water containing 0.05% by volume of a spreading agent (product name: Shindain (registered trademark)) so that the concentration of active ingredient may be 0.05 ppm, 0.2 ppm, 0.8 ppm, 3.1 ppm, 12.5 ppm, 50 ppm or 200 ppm. PRINCE flowable (Active ingredient: fipronil, manufactured by BASF Japan Ltd.) and KIRAPPU flowable (Active ingredient: ethiprole, manufactured by Bayer CropScience K.K.), which are commercial products, are diluted with water containing 0.05% by volume of a spreading agent (product name: Shindain (registered trademark)), respectively so that the concentration of active ingredient may be 0.05 ppm, 0.2 ppm, 0.8 ppm, 3.1 ppm, 12.5 ppm, 50 ppm or 200 ppm. The resulting dilution is sprayed to seedlings (at the 2.5-leaf stage) of rice planted in a container at a rate of 10 ml/seedling. […] Six days later, the number of surviving insects is observed, and a mortality rate of insect is calculated by the formula 2). […]

[4] = system: cotton aphids, susceptible line or reduced susceptible line; experiment: Test Example 17: spray on cucumber seedlings, control value; conditions: 0.05-200 ppm, 10 ml/seedling, six days after spraying
Source text: Natural pyrethrin or MX is formulated according to the method described in the Formulation Example 1. Similarly, triflumezopyrim, flupyradifuron, or flupyrimin is formulated according to the method described in the Formulation Example 1, respectively. Each dilution is obtained by diluting each of the above formulations with water containing 0.05% by volume of a spreading agent (product name: Shindain (registered trademark)) so that the concentration of active ingredient may be 0.05 ppm, 0.2 ppm, 0.8 ppm, 3.1 ppm, 12.5 ppm, 50 ppm or 200 ppm. Each dilution is obtained by diluting Admire wettable powder (Active ingredient: imidacloprid, manufactured by Bayer CropScience K.K.) and Actara water dispersible granule (Active ingredient: thiamethoxam, manufactured by Syngenta Japan K.K.), which are commercial products, with water containing 0.05% by volume of a spreading agent (product name: Shindain (registered trademark)) so that the concentration of active ingredient may be 0.05 ppm, 0.2 ppm, 0.8 ppm, 3.1 ppm, 12.5 ppm, 50 ppm or 200 ppm. Cucumber seedlings (at the second true leaf unfolding stage) planted in a container are inoculated with 30 cotton aphids (including all growth stages) which are a susceptible line (a line that have been bred successively in Health & Crop Sciences Research Laboratory of Sumitomo Chemical Co., Ltd.) or a reduced susceptible line (a line that have been bred successively without selection after collecting in Miyazaki prefecture in 2016). One day later, the resulting dilution is sprayed to the seedlings at a rate of 10 ml/seedling. On the other hand, cucumbers are cultivated in the same way as in the treated plot, except that the dilution containing natural pyrethrin or MX is not sprayed (this is referred to as an untreated plot). Six days after spraying, the number of surviving insects is observed, and a control value is calculated by formula 1).
Letters in the formula have the following meanings • Cb: The number of insects tested in the untreated plot • Cai: The number of surviving insects at the time of observation in the untreated plot • Tb: The number of tested insects in the treated plot • Tai: The number of surviving insects at the time of observation in the treated plot

[5] = system: brown planthopper, susceptible line or reduced susceptible line; experiment: Test Example 18: spray on rice seedlings, mortality rate; conditions: brown planthopper 3rd-instar larvae on rice; 0.05-200 ppm; six days
Procedure: Natural pyrethrin or MX is formulated according to the method described in the Formulation Example 1. Similarly, flupyradifuron and flupyrimin are formulated according to the method described in the Formulation Example 4, respectively. Each of the above formulations is diluted with water containing 0.05% by volume of a spreading agent (product name: Shindain (registered trademark)) so that the concentration of active ingredient may be 0.05 ppm, 0.2 ppm, 0.8 ppm, 3.1 ppm, 12.5 ppm, 50 ppm or 200 ppm. Admire wettable powder (Active ingredient: imidacloprid, manufactured by Bayer CropScience K.K.), which is a commercial product, is diluted with water containing 0.05% by volume of a spreading agent (product name: Shindain (registered trademark)) so that the concentration of active ingredient may be 0.05 ppm, 0.2 ppm, 0.8 ppm, 3.1 ppm, 12.5 ppm, 50 ppm or 200 ppm. The resulting dilution is sprayed to seedlings (at the 2.5-leaf stage) of rice (Oryza sativa) planted in a container at a rate of 10 ml/seedling. After that, 20 3rd-instar larvae of brown planthopper of a susceptible line (a line that have been bred successively in Health & Crop Sciences Research Laboratory of Sumitomo Chemical Co., Ltd.) or brown planthopper of a reduced susceptible line (a line that have been bred successively without selection after collecting in Nagasaki prefecture in 2016) are released thereto. Six days later, the number of surviving insects is observed, and a mortality rate of insect is calculated by formula 2). On the other hand, rice is cultivated in the same way as in the treated plot, except that the dilution containing natural pyrethrin or MX is not sprayed (this is referred to as an untreated plot).

SMILES | effect (mortality rate) on the reduced susceptible line compared with the susceptible line [1] | effect (control value) on the reduced susceptible line compared with the susceptible line [4] | other results
CC(C)N1C(=O)N(c2ccccc2)CS/C1=N\C(C)(C)C [buprofezin] | low compared with that on the sensitive line |  | 
CNC(=O)c1cc(Cl)cc(C)c1NC(=O)c1cc(Br)nn1-c1ncccc1Cl [chlorantraniliprole] |  |  | effect (mortality rate) on the reduced susceptible line compared with the susceptible line [2]: low compared with that on the sensitive line
CNC(=O)c1cc(C#N)cc(C)c1NC(=O)c1cc(Br)nn1-c1ncccc1Cl [cyantraniliprole] |  |  | effect (mortality rate) on the reduced susceptible line compared with the susceptible line [2]: low compared with that on the sensitive line
CC[S+]([O-])c1c(C#N)nn(-c2c(Cl)cc(C(F)(F)F)cc2Cl)c1N (centres unmarked) [ethiprole] | low compared with that on the sensitive line |  | effect (mortality rate) on the reduced susceptible line compared with the susceptible line [3]: low compared with that on the sensitive line
CCOc1ccc(C(C)(C)COCc2cccc(Oc3ccccc3)c2)cc1 [etofenprox] | low compared with that on the sensitive line |  | 
N#Cc1nn(-c2c(Cl)cc(C(F)(F)F)cc2Cl)c(N)c1[S+]([O-])C(F)(F)F (centres unmarked) [fipronil] | low compared with that on the sensitive line |  | effect (mortality rate) on the reduced susceptible line compared with the susceptible line [3]: low compared with that on the sensitive line
Cc1cc(C(F)(C(F)(F)F)C(F)(F)F)ccc1NC(=O)c1cccc(I)c1C(=O)NC(C)(C)CS(C)(=O)=O [flubendiamide] |  |  | effect (mortality rate) on the reduced susceptible line compared with the susceptible line [2]: low compared with that on the sensitive line
O=C1C=C(N(Cc2ccc(Cl)nc2)CC(F)F)CO1 [flupyradifuron] | low compared with that on the sensitive line | low compared with that on the sensitive line | effect (mortality rate) on the reduced susceptible line compared with the susceptible line [5]: low compared with that on the sensitive line
O=C(N=c1ccccn1Cc1ccc(Cl)nc1)C(F)(F)F [flupyrimin] | low compared with that on the sensitive line | low compared with that on the sensitive line | effect (mortality rate) on the reduced susceptible line compared with the susceptible line [5]: low compared with that on the sensitive line
O=[N+]([O-])NC1=NCCN1Cc1ccc(Cl)nc1 [imidacloprid] | low compared with that on the sensitive line | low compared with that on the sensitive line | effect (mortality rate) on the reduced susceptible line compared with the susceptible line [5]: low compared with that on the sensitive line
CN1COCN(Cc2cnc(Cl)s2)/C1=N\[N+](=O)[O-] [thiamethoxam] |  | low compared with that on the sensitive line | 
O=c1c(-c2cccc(C(F)(F)F)c2)c([O-])[n+](Cc2cncnc2)c2ccccn12 [triflumezopyrim] |  | low compared with that on the sensitive line | 
